In ChEMBL document CHEMBL4265996, “Genetically-encoded fragment-based discovery of glycopeptide ligands for DC-SIGN” (Bioorg Med Chem, 2018) one finds IC50, Activity and EC50 data, which are given here for nine compounds.

The target of test [1] is T1, CD209 antigen (Homo sapiens, UniProt Q9NNX6).
T1 sequence (Q9NNX6 whole entry): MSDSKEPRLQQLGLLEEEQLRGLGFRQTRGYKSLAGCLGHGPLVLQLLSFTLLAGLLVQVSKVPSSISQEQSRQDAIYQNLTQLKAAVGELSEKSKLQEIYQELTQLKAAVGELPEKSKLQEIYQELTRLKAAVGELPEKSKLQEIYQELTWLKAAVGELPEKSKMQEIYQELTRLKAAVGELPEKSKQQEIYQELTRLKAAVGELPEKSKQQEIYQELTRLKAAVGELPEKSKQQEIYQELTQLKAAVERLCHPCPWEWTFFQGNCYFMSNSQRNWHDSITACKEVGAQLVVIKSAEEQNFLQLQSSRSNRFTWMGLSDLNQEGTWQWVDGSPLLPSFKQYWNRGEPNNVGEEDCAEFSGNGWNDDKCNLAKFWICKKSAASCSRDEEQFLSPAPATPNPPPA
The test can be described thus: Inhibition of binding of trimannoside containing horseradish peroxidase to DC-SIGN carbohydrate binding domain (unknown origin) expressed in Escherichia coli preincubated for 1 hr followed by TMB substrate addition measured after 30 mins by ELISA.

Test [2] addresses T2, CD209 antigen (Homo sapiens) (UniProt Q9NNX6).
T2 sequence (whole entry): T1 sequence (Q9NNX6 whole entry)
Nature of the test: Binding affinity to recombinant human DC-SIGN expressed in rat-6 fibroblast preincubated with Cy5 conjugated compound for 2 hrs followed by washing and measured by flow cytometric analysis.

Test [3] deals with T1, CD209 antigen. Nature of the test: Binding affinity to DC-SIGN extracellular domain (unknown origin) expressed in Escherichia coli after 1 hr by ELISA.
Test [4] has as its target C-type lectin domain family 4 member K (Homo sapiens) (UniProt Q9UJ71). The test can be described thus: Binding affinity to human langerin expressed in human Raji cells preincubated with Cy5 conjugated compound for 2 hrs followed by washing and measured by flow cytometric analysis. Type of test: cell-based.
In test [5] the target is T2, CD209 antigen (Homo sapiens). The test can be described thus: Binding affinity to recombinant human DC-SIGN expressed in human Raji cells preincubated with Cy5 conjugated compound for 2 hrs followed by washing and measured by flow cytometric analysis. It is filed as cell-based. (A flow cytometer gives signals particle by particle.)
Test [6] is described as follows: Binding affinity to ConA […] after 1 hr by ELISA.

Activity calls are given as the source filed them. No cut-off for these calls is given here. Where a SMILES comes first, the peptide text is derived from it. The star is where a group is joined. X1 = O=C(/C=N/O[C@H]1O[C@H](CO)[C@@H](O)[C@H](O)[C@@H]1O)*; X2 = O=C(/C=N/O[C@H]1O[C@H](CO)[C@H](O)[C@H](O)[C@H]1O)*

Sequence of C-type lectin domain family 4 member K (Homo sapiens) (Q9UJ71 whole entry, the tested form may be a part): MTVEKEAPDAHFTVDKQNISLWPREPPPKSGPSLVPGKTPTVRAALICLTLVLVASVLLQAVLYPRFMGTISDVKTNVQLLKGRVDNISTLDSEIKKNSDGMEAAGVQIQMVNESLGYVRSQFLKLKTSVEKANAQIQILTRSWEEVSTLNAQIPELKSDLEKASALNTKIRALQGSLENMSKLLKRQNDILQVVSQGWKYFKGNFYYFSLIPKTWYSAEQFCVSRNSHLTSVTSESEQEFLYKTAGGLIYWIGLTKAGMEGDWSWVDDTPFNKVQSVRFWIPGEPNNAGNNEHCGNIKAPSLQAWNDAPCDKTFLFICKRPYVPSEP

In test [1], `OC[C@H]1O[C@H](O)[C@@H](O)[C@@H](O)[C@@H]1O` gave a half-maximal inhibitory concentration (IC50) of 6400 µM.

In test [1], `[N-]=[N+]=NCCCCCCO[C@H]1O[C@H](CO[C@H]2O[C@H](CO)[C@@H](O)[C@H](O)[C@@H]2O)[C@@H](O)[C@H](O[C@H]2O[C@H](CO)[C@@H](O)[C@H](O)[C@@H]2O)[C@@H]1O` displayed an IC50 of 1400 µM.

On to `CSCC[C@H](NC(=O)/C=N/O[C@H]1O[C@H](CO)[C@@H](O)[C@H](O)[C@@H]1O)C(=O)N1CCC[C@H]1C(=O)N[C@@H](C)C(=O)N[C@@H](Cc1c[nH]c2ccccc12)C(=O)N[C@@H](CCCNC(=N)N)C(=O)N[C@@H](Cc1cnc[nH]1)C(=O)N[C@@H](C)C(N)=O` (X1-MPAWRHA-NH2), for which the result in test [2] and in test [5] was Active. In addition, the EC50 in test [3] is 4 ×10⁸ PFU; in test [6] it was > 1 ×10¹¹ PFU. Also, in test [4], the result was inactive.

Consider `CC(C)[C@H](NC(=O)/C=N/O[C@H]1O[C@H](CO)[C@@H](O)[C@H](O)[C@@H]1O)C(=O)N[C@@H](CCC(=O)O)C(=O)N[C@@H](CCCCN)C(=O)N[C@@H](CC(N)=O)C(=O)N[C@@H](CC(=O)O)C(=O)N[C@@H](CCC(N)=O)C(=O)N[C@@H](CCCCN)C(=O)N[C@H](C(=O)N[C@@H](Cc1ccc(O)cc1)C(=O)N[C@@H](Cc1cnc[nH]1)C(=O)N[C@@H](C)C(N)=O)[C@@H](C)O` (X1-VEKNDQKTYHA-NH2), for which the outcome in test [2] was inactive. The EC50 is listed as 2.6 ×10¹¹ PFU in test [3] and > 1 ×10¹¹ PFU in test [6].

The compound `CSCC[C@H](NC(=O)/C=N/O[C@H]1O[C@H](CO)[C@H](O)[C@H](O)[C@H]1O)C(=O)N1CCC[C@H]1C(=O)N[C@@H](C)C(=O)N[C@@H](Cc1c[nH]c2ccccc12)C(=O)N[C@@H](CCCNC(=N)N)C(=O)N[C@@H](Cc1cnc[nH]1)C(=O)N[C@@H](C)C(N)=O` (X2-MPAWRHA-NH2) gave an EC50 in test [3] of 3.7 ×10¹⁰ PFU.

In turn, `CC(C)[C@H](NC(=O)/C=N/O[C@H]1O[C@H](CO)[C@H](O)[C@H](O)[C@H]1O)C(=O)N[C@@H](CCC(=O)O)C(=O)N[C@@H](CCCCN)C(=O)N[C@@H](CC(N)=O)C(=O)N[C@@H](CC(=O)O)C(=O)N[C@@H](CCC(N)=O)C(=O)N[C@@H](CCCCN)C(=O)N[C@H](C(=O)N[C@@H](Cc1ccc(O)cc1)C(=O)N[C@@H](Cc1cnc[nH]1)C(=O)N[C@@H](C)C(N)=O)[C@@H](C)O` (X2-VEKNDQKTYHA-NH2) registered an EC50 in test [3] of 2 ×10¹¹ PFU.

As for `CC[C@H](C)[C@H](NC(=O)[C@H](CO)NC(=O)[C@H](CO)NC(=O)/C=N/O[C@H]1O[C@H](CO)[C@@H](O)[C@H](O)[C@@H]1O)C(=O)N[C@H](C(=O)N[C@@H](Cc1cnc[nH]1)C(=O)N[C@@H](C)C(=O)N1CCC[C@H]1C(=O)N[C@@H](CO)C(N)=O)[C@@H](C)O` (stereo in doubt), the EC50 in test [3] was 2.8 ×10⁹ PFU; in test [6], > 1 ×10¹¹ PFU.

The compound `CC(C)C[C@H](NC(=O)[C@H](CC(=O)O)NC(=O)[C@H](Cc1ccc(O)cc1)NC(=O)[C@H](Cc1c[nH]c2ccccc12)NC(=O)/C=N/OCCO[C@H]1O[C@H](CO)[C@@H](O)[C@H](O)[C@@H]1O)C(=O)N[C@@H](Cc1ccc(O)cc1)C(=O)N[C@@H](Cc1cnc[nH]1)C(N)=O` (stereo in doubt) displayed an EC50 in test [6] of 2.9 ×10⁹ PFU.

In test [1], `CC[C@H](C)[C@H](NC(=O)[C@H](CO)NC(=O)/C=N/O[C@H]1O[C@H](CO)[C@@H](O)[C@H](O)[C@@H]1O)C(=O)N[C@H](C(=O)N[C@@H](Cc1cnc[nH]1)C(=O)N[C@@H](C)C(=O)N1CCC[C@H]1C(=O)N[C@@H](CO)C(N)=O)[C@@H](C)O` (stereo in doubt) came in with an IC50 of 450 µM.

One may read the IC50 as the concentration that gives 50% inhibition.
